Tests used:
Assay in all cases: Synergy assay, checkerboard method
K. pneumoniae LMG20218 = conditions: for FICI: synergistic ≤0.5; for MIC of antibiotic at brevibacillin 0 mg/L / MIC of antibiotic at brevibacillin 2V 0 mg/L / MIC of antibiotic at brevibacillin I 0 mg/L / MIC of antibiotic at brevibacillin V 0 mg/L: checkerboard, 5 × 10^5 cfu/ml, 37°C, 20 h, antibiotic alone
Description: (§1) Briefly, antibiotics were diluted in twofold series, while brevibacillins were added at a certain final concentration of 1, 2, or 4 mg/L. Indicator strains were added at a final concentration of 5 × 10^5 cfu/ml. After incubation at 37°C for 20 h, the OD600 of plates was determined. The fractional inhibitory concentration index (FICI) was calculated using the following formula: FICI = (MIC compound A in combination with B / MIC compound A) + (MIC compound B in combination with A / MIC compound B).

E. coli ATCC 25922 = conditions: for FICI: synergistic ≤0.5; for MIC of antibiotic at brevibacillin 0 mg/L / MIC of antibiotic at brevibacillin 2V 0 mg/L / MIC of antibiotic at brevibacillin I 0 mg/L / MIC of antibiotic at brevibacillin V 0 mg/L: checkerboard, 5 × 10^5 cfu/ml, 37°C, 20 h, antibiotic alone
Description: as §1

P. aeruginosa LMG6395 = conditions: for FICI: synergistic ≤0.5; for MIC of antibiotic at brevibacillin 0 mg/L / MIC of antibiotic at brevibacillin 2V 0 mg/L / MIC of antibiotic at brevibacillin I 0 mg/L / MIC of antibiotic at brevibacillin V 0 mg/L: checkerboard, 5 × 10^5 cfu/ml, 37°C, 20 h, antibiotic alone
Description: as §1

A. baumannii ATCC17978 = conditions: for FICI / MIC of antibiotic at brevibacillin 0 mg/L / MIC of antibiotic at brevibacillin 2V 0 mg/L / MIC of antibiotic at brevibacillin I 0 mg/L / MIC of antibiotic at brevibacillin V 0 mg/L: A. baumannii ATCC17978; for FICI: synergistic ≤0.5; for MIC of antibiotic at brevibacillin 0 mg/L / MIC of antibiotic at brevibacillin 2V 0 mg/L / MIC of antibiotic at brevibacillin I 0 mg/L / MIC of antibiotic at brevibacillin V 0 mg/L: checkerboard, 5 × 10^5 cfu/ml, 37°C, 20 h, antibiotic alone
Description: as §1

[1] = antibiotic + brevibacillin 2V, E. coli ATCC 25922
[2] = antibiotic + brevibacillin I, E.coli ATCC 25922
[3] = antibiotic + brevibacillin V, E.coli ATCC 25922
[4] = antibiotic + brevibacillin, E.coli ATCC 25922

Row | MIC of antibiotic at brevibacillin 0 mg/L (K. pneumoniae LMG20218) [µg/mL] | MIC of antibiotic at brevibacillin 2V 0 mg/L (K. pneumoniae LMG20218) [µg/mL] | MIC of antibiotic at brevibacillin I 0 mg/L (K. pneumoniae LMG20218) [µg/mL] | MIC of antibiotic at brevibacillin V 0 mg/L (K. pneumoniae LMG20218) [µg/mL] | MIC of antibiotic at brevibacillin 0 mg/L (E. coli ATCC 25922; E.coli ATCC 25922) [µg/mL] | MIC of antibiotic at brevibacillin 2V 0 mg/L (E. coli ATCC 25922; E.coli ATCC 25922) [µg/mL] | MIC of antibiotic at brevibacillin I 0 mg/L (E. coli ATCC 25922; E.coli ATCC 25922) [µg/mL] | MIC of antibiotic at brevibacillin V 0 mg/L (E. coli ATCC 25922; E.coli ATCC 25922) [µg/mL] | SMILES | FICI (K. pneumoniae LMG20218; antibiotic + brevibacillin 2V) | FICI (K. pneumoniae LMG20218; antibiotic + brevibacillin I) | FICI (K. pneumoniae LMG20218; antibiotic + brevibacillin V) | FICI (K. pneumoniae LMG20218; antibiotic + brevibacillin) | FICI (E. coli ATCC 25922; [1]) | FICI (E. coli ATCC 25922; [2]) | FICI (E. coli ATCC 25922; [3]) | FICI (E. coli ATCC 25922; [4]) | FICI (P. aeruginosa LMG6395; antibiotic + brevibacillin 2V) | FICI (P. aeruginosa LMG6395; antibiotic + brevibacillin I) | FICI (P. aeruginosa LMG6395; antibiotic + brevibacillin V) | FICI (P. aeruginosa LMG6395; antibiotic + brevibacillin) | other results
1 | 32 | 32 | 32 | 32 | 2 | 2 | 2 | 2 | CCn1cc(C(=O)O)c(=O)c2ccc(C)nc21 [Nalidixic acid] | 0.531 | 0.516 | 1.016 | 0.563 | 0.313 | 0.313 | 0.375 | 0.375 | 0.266 | 0.266 | 0.516 | 0.516 | MIC of antibiotic at brevibacillin 0 mg/L (P. aeruginosa LMG6395): 256 µg/mL; MIC of antibiotic at brevibacillin 2V 0 mg/L (P. aeruginosa LMG6395): 256 µg/mL; MIC of antibiotic at brevibacillin I 0 mg/L (P. aeruginosa LMG6395): 256 µg/mL; MIC of antibiotic at brevibacillin V 0 mg/L (P. aeruginosa LMG6395): 256 µg/mL; FICI (A. baumannii ATCC17978; antibiotic + brevibacillin 2V): 0.531; FICI (A. baumannii ATCC17978; antibiotic + brevibacillin I): 0.516; FICI (A. baumannii ATCC17978; antibiotic + brevibacillin V): 1.016; FICI (A. baumannii ATCC17978; antibiotic + brevibacillin): 0.625; MIC of antibiotic at brevibacillin 0 mg/L (A. baumannii ATCC17978): 32 µg/mL; MIC of antibiotic at brevibacillin 2V 0 mg/L (A. baumannii ATCC17978): 32 µg/mL; MIC of antibiotic at brevibacillin I 0 mg/L (A. baumannii ATCC17978): 32 µg/mL; MIC of antibiotic at brevibacillin V 0 mg/L (A. baumannii ATCC17978): 32 µg/mL
2 | 16 | 16 | 16 | 16 | 2 | 2 | 2 | 2 | CC[C@H]1OC(=O)[C@H](C)[C@@H](O[C@H]2C[C@@](C)(OC)[C@@H](O)[C@H](C)O2)[C@H](C)[C@@H](O[C@@H]2O[C@H](C)C[C@H](N(C)C)[C@H]2O)[C@](C)(O)C[C@@H](C)CN(C)[C@H](C)[C@@H](O)[C@]1(C)O [Azithromycin] | 1.031 | 1.016 | 1.016 | 1.031 | 0.281 | 0.375 | 0.563 | 0.188 | 0.266 | 0.266 | 0.516 | 0.516 | MIC of antibiotic at brevibacillin 0 mg/L (P. aeruginosa LMG6395): 128 µg/mL; MIC of antibiotic at brevibacillin 2V 0 mg/L (P. aeruginosa LMG6395): 128 µg/mL; MIC of antibiotic at brevibacillin I 0 mg/L (P. aeruginosa LMG6395): 128 µg/mL; MIC of antibiotic at brevibacillin V 0 mg/L (P. aeruginosa LMG6395): 128 µg/mL; FICI (A. baumannii ATCC17978; antibiotic + brevibacillin 2V): 0.531; FICI (A. baumannii ATCC17978; antibiotic + brevibacillin I): 0.516; FICI (A. baumannii ATCC17978; antibiotic + brevibacillin V): 1.016; FICI (A. baumannii ATCC17978; antibiotic + brevibacillin): 0.531; MIC of antibiotic at brevibacillin 0 mg/L (A. baumannii ATCC17978): 16 µg/mL; MIC of antibiotic at brevibacillin 2V 0 mg/L (A. baumannii ATCC17978): 16 µg/mL; MIC of antibiotic at brevibacillin I 0 mg/L (A. baumannii ATCC17978): 16 µg/mL; MIC of antibiotic at brevibacillin V 0 mg/L (A. baumannii ATCC17978): 16 µg/mL
3 | 0.5 | 0.5 | 0.5 | 0.5 | 4 | 4 | 4 | 4 | NCC[C@H](O)C(=O)N[C@@H]1C[C@H](N)[C@@H](O[C@H]2O[C@H](CN)[C@@H](O)[C@H](O)[C@H]2O)[C@H](O)[C@H]1O[C@H]1O[C@H](CO)[C@@H](O)[C@H](N)[C@H]1O [Amikacin] | 0.563 | 0.563 | 1.016 | 1.031 | 0.188 | 0.281 | 0.250 | 0.156 | 0.266 | 0.266 | 0.266 | 0.266 | MIC of antibiotic at brevibacillin 0 mg/L (P. aeruginosa LMG6395): 2 µg/mL; MIC of antibiotic at brevibacillin 2V 0 mg/L (P. aeruginosa LMG6395): 2 µg/mL; MIC of antibiotic at brevibacillin I 0 mg/L (P. aeruginosa LMG6395): 2 µg/mL; MIC of antibiotic at brevibacillin V 0 mg/L (P. aeruginosa LMG6395): 2 µg/mL; FICI (A. baumannii ATCC17978; antibiotic + brevibacillin 2V): 0.141; FICI (A. baumannii ATCC17978; antibiotic + brevibacillin I): 0.078; FICI (A. baumannii ATCC17978; antibiotic + brevibacillin V): 0.094; FICI (A. baumannii ATCC17978; antibiotic + brevibacillin): 0.094; MIC of antibiotic at brevibacillin 0 mg/L (A. baumannii ATCC17978): 16 µg/mL; MIC of antibiotic at brevibacillin 2V 0 mg/L (A. baumannii ATCC17978): 16 µg/mL; MIC of antibiotic at brevibacillin I 0 mg/L (A. baumannii ATCC17978): 16 µg/mL; MIC of antibiotic at brevibacillin V 0 mg/L (A. baumannii ATCC17978): 16 µg/mL; decrease of MIC of amikacin against A. baumannii (A. baumannii ATCC17978; in the presence of 4 mg/L brevibacillins): 32–64 folds

— paper PMC8245773, “Brevibacillin 2V, a Novel Antimicrobial Lipopeptide With an Exceptionally Low Hemolytic Activity” (Frontiers in Microbiology, 2021)
